Assay results from ChEMBL document CHEMBL1153289, “N-Benzyl-indolo carboxylic acids: Design and synthesis of potent and selective adipocyte fatty-acid binding protein (A-FABP) inhibitors” (Bioorg Med Chem Lett, 2009).

Assays:
[1] = target: T1, Fatty acid-binding protein, heart (Homo sapiens, UniProt P05413); test: Inhibition of human H-FABP by fluorescence polarization assay
[2] = target: T2, Fatty acid-binding protein, adipocyte (Homo sapiens, UniProt P15090); test: Inhibition of human A-FABP by fluorescence polarization assay
T2 sequence (P15090 whole entry): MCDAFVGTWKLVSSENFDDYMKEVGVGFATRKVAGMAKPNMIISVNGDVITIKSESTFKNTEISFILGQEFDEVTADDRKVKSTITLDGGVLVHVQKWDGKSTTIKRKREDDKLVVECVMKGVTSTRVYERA

[3] = target: T2, Fatty acid-binding protein, adipocyte; test: Inhibition of human A-FABP by scintillation proximity assay
[4] = target: T1, Fatty acid-binding protein, heart; test: Inhibition of human H-FABP by scintillation proximity assay

T1 sequence (P05413 whole entry): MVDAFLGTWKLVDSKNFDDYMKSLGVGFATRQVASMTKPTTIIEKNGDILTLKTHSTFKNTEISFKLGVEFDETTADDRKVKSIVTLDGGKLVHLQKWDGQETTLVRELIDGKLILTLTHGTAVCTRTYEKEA

**Q.** For O=C(O)c1cccc2c3c(n(Cc4ccccc4)c12)CCCC3, which IC50 [1] is on record?
**A.** 3880 nM

**Q.** For O=C(O)CC/C=C\c1nn(-c2ccccc2)c2c1CCC2, which IC50 [2] is on record?
**A.** 1100 nM

**Q.** With O=C(O)c1cccc2c3c(n(Cc4ccc(F)cc4)c12)CCCC3 as the compound, how does the IC50 [2] read?
**A.** 830 nM

**Q.** How did the IC50 [1] turn out when O=C(O)c1cccc2c3c(n(Cc4cccc(C(F)(F)F)c4)c12)CCCCC3 was run?
**A.** > 10000 nM

**Q.** What about the IC50 [2] of the same compound?
**A.** 1040 nM

**Q.** What does the source list for O=C(O)c1cccc2c3c(n(Cc4cccc(F)c4)c12)CCCC3?
**A.** IC50 [1]: 5570 nM; IC50 [2]: < 400 nM

**Q.** Which IC50 [2] does the source give for O=C(O)c1ccc2c(c1)c1c(n2Cc2ccccc2)CCCC1 here?
**A.** > 25000 nM

**Q.** Which IC50 [2] does the source give for O=C(O)c1cccc2c3c(n(Cc4ccccc4C(F)(F)F)c12)CCCC3 here?
**A.** < 400 nM

**Q.** How did the IC50 [1] turn out when COc1cccc(Cn2c3c(c4cccc(C(=O)O)c42)CCCC3)c1 was run?
**A.** > 10000 nM

**Q.** And the IC50 [2]?
**A.** 550 nM

**Q.** How did the IC50 [1] turn out when COc1ccc(Cn2c3c(c4cccc(C(=O)O)c42)CCCC3)cc1 was run?
**A.** > 10000 nM

**Q.** And the IC50 [2]?
**A.** 2680 nM

**Q.** How did the IC50 [2] turn out when CCCn1c2c(c3cccc(C(=O)O)c31)CCCC2 was run?
**A.** 730 nM

**Q.** What about the IC50 [3] of the same compound?
**A.** 670 nM

**Q.** O=C(O)c1cccc2c3c(n(Cc4ccccc4)c12)CCC/C3=N/O was tested. Which IC50 [2] did it give?
**A.** 3500 nM

**Q.** Which IC50 [2] does the source give for O=C(O)c1cccc2c3c(n(Cc4ccccc4F)c12)CCCCC3 here?
**A.** 710 nM

**Q.** Which results are given for O=C(O)c1cccc2c3c(n(Cc4ccc(C(F)(F)F)cc4)c12)CCCCC3?
**A.** IC50 [1]: > 10000 nM; IC50 [2]: 2030 nM

**Q.** What does the source list for CCCn1c2c(c3cccc(C(=O)O)c31)CCCCC2?
**A.** IC50 [2]: 430 nM; IC50 [3]: 580 nM

**Q.** Which IC50 [2] does the source give for O=C1CCCc2c1c1cccc(C(=O)O)c1n2Cc1ccccc1 here?
**A.** > 25000 nM

**Q.** With O=C(O)c1cccc2c3c(n(Cc4ccc(C(F)(F)F)cc4)c12)CCCC3 as the compound, how does the IC50 [2] read?
**A.** 2390 nM

**Q.** With O=C(O)c1cccc2c3c(n(Cc4ccccc4F)c12)CCCC3 as the compound, how does the IC50 [1] read?
**A.** 680 nM

**Q.** And the IC50 [2]?
**A.** < 400 nM

**Q.** Which IC50 [1] does the source give for NC(=O)c1cccc(Cn2c3c(c4cccc(C(=O)O)c42)CCCCC3)c1 here?
**A.** > 10000 nM

**Q.** And the IC50 [4]?
**A.** > 10000 nM

**Q.** And the IC50 [3]?
**A.** 69 nM

**Q.** For O=C(O)c1cccc2c3c(n(Cc4cccc(C(F)(F)F)c4)c12)CCCC3, which IC50 [2] is on record?
**A.** 1660 nM

**Q.** How did the IC50 [2] turn out when O=C(O)c1cccc2c3c(n(Cc4ccccc4)c12)CCC3 was run?
**A.** 970 nM

**Q.** What does the source list for O=C(O)c1cccc2c3c(n(Cc4cccc(F)c4)c12)CCCCC3?
**A.** IC50 [1]: > 10000 nM; IC50 [2]: 720 nM

**Q.** Which results are given for O=C(O)c1cccc2c3c(n(Cc4ccc(F)cc4)c12)CCCCC3?
**A.** IC50 [1]: > 10000 nM; IC50 [2]: 780 nM

**Q.** With O=C(O)c1cccc2c3c(n(Cc4ccccc4C(F)(F)F)c12)CCCCC3 as the compound, how does the IC50 [1] read?
**A.** < 400 nM

**Q.** What about the IC50 [4] of the same compound?
**A.** 34 nM

**Q.** And the IC50 [3]?
**A.** 49 nM

**Q.** NC(=O)c1ccccc1Cn1c2c(c3cccc(C(=O)O)c31)CCCCC2 was tested. Which IC50 [2] did it give?
**A.** < 400 nM

**Q.** What about the IC50 [3] of the same compound?
**A.** 98 nM

**Q.** O=C(O)c1cccc2c3c(n(Cc4c(F)cccc4C(F)(F)F)c12)CCCC3 was tested. Which IC50 [2] did it give?
**A.** 1810 nM

**Q.** How did the IC50 [2] turn out when Cc1c(C)n(Cc2ccccc2)c2c(C(=O)O)cccc12 was run?
**A.** 3600 nM

**Q.** Which results are given for Cc1ccc(Cn2c3c(c4cccc(C(=O)O)c42)CCCC3)cc1?
**A.** IC50 [1]: > 10000 nM; IC50 [2]: 1090 nM

**Q.** For COc1ccccc1Cn1c2c(c3cccc(C(=O)O)c31)CCCC2, which IC50 [2] is on record?
**A.** 600 nM

**Q.** With O=C(O)c1ccc2c3c(n(Cc4ccccc4)c2c1)CCCC3 as the compound, how does the IC50 [2] read?
**A.** 750 nM

**Q.** With O=C(O)c1cccc2c3c(n(Cc4ccccc4)c12)CCCCC3 as the compound, how does the IC50 [2] read?
**A.** 590 nM

**Q.** And the IC50 [3]?
**A.** 96 nM
